Source: US7642283B2, “Mitochrondrial permeability transition pore affinity labels and modulators” (Hoffmann-La Roche Inc., priority 2003, dated 2010)

Tests used:
MPTP [1] = test: Ca2+-induced swelling (MPTP) in rat liver mitochondria energised with succinate; format: biochemical; conditions: as E1, in the presence of 1 μg/ml oligomycin
Protocol: Ca^2+-induced swelling (sucrose permeability) in energized mitochondria was assayed at 25° C. in 96 well-plates by measuring changes in absorbance at 540 nm by means of a […]ax 250 spectrophometer controlled by the SOFTmax PRO™ software (Molecular Devices, Switzerland). The incubation medium contained 0.2 M sucrose, 10 mM Tris-Mops, pH 7.4, 1 mM Pi-Tris, 5 μM EGTA. Succinate (5 mM, in the presence of 2 μM rotenone) or 5 mM glutamate/2.5 mM malate, buffered to pH 7.4 with Tris, were used as respiratory substrates. After a short (˜5 min) preincubation in presence or absence of test compounds, mitochondrial swelling was induced by the addition of 20 μl CaCl2 at final concentrations ranging from 40 to 80 μM, depending on respiratory substrates and Ca^2+ sensitivity of the mitochondrial preparation. The final incubation volume was 0.2 ml and the concentration of mitochondria was ˜0.5 mg mitochondrial protein ml^−1. Swelling kinetics was followed for up to 30 min at 25° C. Absorbance readings were taken every 12 sec and the plate was shaken for 3 s between readings to ensure oxygen diffusion during the experiment and to avoid sedimentation of the mitochondria.
The incubation medium contained 0.2 M sucrose, 10 mM Tris-Mops, pH 7.4, 1 mM Pi-Tris, 5 μM EGTA.

VDAC1 = target: T1, VDAC1 (Rattus norvegicus, UniProt Q9Z2L0); test: Affinity labeling of rat mitochondria with the tritiated spiro compound, SDS-PAGE and fluorography; format: binding
T1 construct: from tissue; host or cells: Percoll-purified rat brain and liver mitochondria
T1 sequence (Q9Z2L0 whole entry): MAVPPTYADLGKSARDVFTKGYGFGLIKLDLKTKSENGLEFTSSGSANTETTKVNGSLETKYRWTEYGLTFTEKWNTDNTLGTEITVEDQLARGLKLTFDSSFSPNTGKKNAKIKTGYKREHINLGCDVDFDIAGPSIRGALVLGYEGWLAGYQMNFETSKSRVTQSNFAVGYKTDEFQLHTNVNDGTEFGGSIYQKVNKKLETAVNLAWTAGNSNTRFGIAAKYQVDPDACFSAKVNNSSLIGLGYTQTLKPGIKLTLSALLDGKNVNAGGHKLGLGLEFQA
Protocol: FIG. 6: Affinity-labeling of isolated rat brain (A) and liver (B) mitochondria. Mitochondrial preparations were incubated in the presence of 10 nM Spiro[cyclopentane-1,5′-[5H]dibenzo[a,d]cyclohepten]-2-one,10′,11′-t2-10′,11′-dihydro-3-methylene- for 15 min at 25° C. in presence or absence of various concentrations of Spiro[cyclopentane-1,5′-[5H]dibenzo[a,d]cyclohepten]-2-one,10′,11′-dihydro-3-methylene-(unlabeled). Samples were submitted to SDS-PAGE (see Experimental Procedures section for details) and fluorography. The fluorograms of the gels are shown. The molecular mass scale (kDa) is shown in the ordinate.
(§1) FIG. 8: (A) Effect of monobromobimano (MBBM) and phenylarsino oxide (PhAO) on VDAC1 labeling by Spiro[cyclopentane-1,5′-[5H]dibenzo[a,d]cyclohepten]-2-one,10′,11′-t2-10′,11′-dihydro-3-methylene- in rat brain mitochondria. Experimental conditions were as in the legend to FIG. 5. (B) Effect of various MPTP inhibitors, atractyloside (ATR) and DIDS on VDAC1 labeling by Spiro[cyclopentane-1,5′-[5H]dibenzo[a,d]cyclohepten]-2-one,10′,11′-t2-10′,11′-dihydro-3-methylene- in rat brain mitochondria. Mitochondria were exposed to DIDS for 5 min before rinsing for removal of the free agent and labeling with Spiro[cyclopentane-1,5′-[5H]dibenzo[a,d]cyclohepten]-2-one,10′,11′-t2-10′,11′-dihydro-3-methylene.
Percoll purified mitochondria (˜30 μg protein per sample) were incubated in the presence of 10 nM Spiro[cyclopentane-1,5′-[5H]dibenzo[a,d]cyclohepten]-2-one,10′,11′-t2-10′,11′-dihydro-3-methylene- in a final volume of 200 μl. After incubation for 15 min at 25° C., samples were centrifuged at 25000×g and the mitochondrial pellet rinsed twice with buffer. Samples were then solubilized in sample buffer containing β-mercaptoethanol (1 h at 37° C.) and subjected to SDS-polyacrylamide gel-electrophoresis (SDS-PAGE) on Tris-glycine Novex pre-cast mini-gels (12% monomer concentration, Invitrogen BV, The Netherlands). After Coomassie Blue staining, gels were processed for fluorography by soaking in Amplify™ (Amersham Biosciences), drying and exposing to X-ray BioMax MS film with BioMax MS intensifying screen (Kodak) at −80° C. for the appropriate time.
as §1, with “Effect” for “FIG. 8: (A) Effect”, “monobromobimano” for “monobromobimano (MBBM)”, “oxide” for “oxide (PhAO)”, “Example 12 (FIG. 8A).” for “the legend to FIG. 5. (B)”, “Spiro[cyclopentane-1,5′-[5H]dibenzo[a,d]cyclohepten]-2-one,10′,11′-t2-10′,11′-dihydro-3-methylene (FIG. 8B).” for “Spiro[cyclopentane-1,5′-[5H]dibenzo[a,d]cyclohepten]-2-one,10′,11′-t2-10′,11′-dihydro-3-methylene.”

MPTP [2] = target: T2, MPTP (Rattus norvegicus, UniProt Q9Z2L0); test: Ca2+-retention capacity of rat brain mitochondria (Calcium Green-5N); format: biochemical; conditions: Ca2+ pulses, rat brain mitochondria
T2 construct: other: n=2; glutamate/malate; other: glutamate/malate; 20 min; mean±SEM; unit not given; other: 300 nM; relieved by 50 μM Ub5
T2 sequence (Q9Z2L0 2-283): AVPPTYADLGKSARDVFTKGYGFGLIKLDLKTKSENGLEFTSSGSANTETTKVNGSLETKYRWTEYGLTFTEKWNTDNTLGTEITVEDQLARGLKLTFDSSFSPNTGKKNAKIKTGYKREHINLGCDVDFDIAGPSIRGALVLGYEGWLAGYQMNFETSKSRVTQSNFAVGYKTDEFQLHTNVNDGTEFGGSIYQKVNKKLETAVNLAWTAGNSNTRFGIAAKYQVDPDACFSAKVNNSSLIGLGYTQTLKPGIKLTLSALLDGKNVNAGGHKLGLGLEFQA
Protocol: FIG. 4: (A) Effect of Spiro[cyclopentane-1,5′-[5H]dibenzo[a,d]cyclohepten]-2-one,10′,11′-dihydro-3-methylene- and CsA on Ca^2+-retention capacity of rat brain mitochondria. The incubation medium contained 0.2 M sucrose, 10 mM Tris-Mops, pH 7.4, 1 mM Pi-Tris, 5 μM EGTA and 5 mM glutamate/2.5 mM malate, buffered to pH 7.4 with Tris, containing 0.01% (w/v) bovine serum albumin and 1 μM Calcium Green-5N. The final volume was 2.5 ml. Trace (a) control, (b) 1 μM CsA, (c) 1 μM Spiro[cyclopentane-1,5′-[5H]dibenzo[a,d]cyclohepten]-2-one,10′,11′-dihydro-3-methylene- and (d) 1 μM CsA plus 1 μM Spiro[cyclopentane-1,5′-[5H]dibenzo[a,d]cyclohepten]-2-one,10′,11′-dihydro-3-methylene-. Each fluorescence spike corresponds to addition of 5 μM Ca^2+. (B) Comparison of Ca^2+-retention capacity in liver (a) and brain mitochondria (b).
Effect of Spiro[cyclopentane-1,5′-[5H]dibenzo[a,d]cyclohepten]-2-one,10′,11′-dihydro-3-methylene- and CsA on Ca^2+-retention capacity of rat brain mitochondria (FIG. 4). Measurement of extramitochondrial Ca^2+ was determined using a Perkin-Elmer LS-50B fluorimeter controlled by the FL WinLab computer program. […] The final volume was 2.5 ml and the cuvette was thermostated at 25° C. Brain mitochondria were then subjected to a train of 5 μM Ca^2+ additions (˜150 nmol mg protein^−1). Extramitochondrial Ca^2+ was monitored at excitation/emission wavelengths of 505-535. […] The Ca^2+-retention capacity in liver (a) and brain mitochondria (b) were also compared (FIG. 4B).
The effect of Spiro[cyclopentane-1,5′-[5H]dibenzo[a,d]cyclohepten]-2-one,10′,11′-dihydro-3-methylene- at inhibiting MPTP was also investigated in mitochondria isolated from rat forebrain. […] Due to the difficulties mentioned above, the effect of Spiro[cyclopentane-1,5′-[5H]dibenzo[a,d]cyclohepten]-2-one,10′,11′-dihydro-3-methylene- on MPTP in brain mitochondria was more accurately investigated by subjecting mitochondria isolated from rat forebrain to a series of Ca^2+ pulses (5 μM, ˜150 nmol mg protein^−1) and by monitoring extramitochondrial Ca^2+ or using fluororescent probes.

YVDAC1 [3] = test: Affinity labeling of yeast mitochondria (Δpor1 and Δpor1 expressing YVDAC1); format: binding; conditions: Δpor1 strains
Source text: (§2) FIG. 9: Spiro[cyclopentane-1,5′-[5H]dibenzo[a,d]cyclohepten]-2-one,10′,11′-t2-10′,11′-dihydro-3-methylene affinity labeling of yeast mitochondria lacking the por1 gene for YVDAC1 (Δpor1) and into Δpor1 yeast mitochondria transfected with YVDAC1 in presence or absence of different concentrations of Spiro[cyclopentane-1,5′-[5H]dibenzo[a,d]cyclohepten]-2-one,10′,11′-dihydro-3-methylene (unlabeled). The fluorograms of gels after SDS-PAGE are shown. Mitochondria isolated from yeast strains were incubated in the presence of 10 nM Spiro[cyclopentane-1,5′-[5H]dibenzo[a,d]cyclohepten]-2-one,10′,11′-t2-10′,11′-dihydro-3-methylene for 15 min at 25° C. Numbers indicate the concentrations (μM) of the various compounds added.
(§3) To further confirm VDAC1 as the protein target of Spiro[cyclopentane-1,5′-[5H]dibenzo[a,d]cyclohepten]-2-one,10′,11′-dihydro-3-methylene-, the labeling of proteins in mitochondria prepared from yeasts by Spiro[cyclopentane-1,5′-[5H]dibenzo[a,d]cyclohepten]-2-one,10′,11′-t2-10′,11′-dihydro-3-methylene- was investigated. […] Increasing concentration of unlabelled Spiro[cyclopentane-1,5′-[5H]dibenzo[a,d]cyclohepten]-2-one,10′,11′-dihydro-3-methylene-inhibited incorporation of the radioactivity (FIG. 9).

YVDAC1 [4] = target: T3, YVDAC1 (Saccharomyces cerevisiae, UniProt P04840); test: as above; format: binding; conditions: Δpor1 strains with plasmid expressing YVDAC1
T3 construct: expressed in transfected cells; host or cells: Δpor1 yeast strain carrying a YVDAC1 plasmid; isolated mitochondria
T3 sequence (P04840 2-283): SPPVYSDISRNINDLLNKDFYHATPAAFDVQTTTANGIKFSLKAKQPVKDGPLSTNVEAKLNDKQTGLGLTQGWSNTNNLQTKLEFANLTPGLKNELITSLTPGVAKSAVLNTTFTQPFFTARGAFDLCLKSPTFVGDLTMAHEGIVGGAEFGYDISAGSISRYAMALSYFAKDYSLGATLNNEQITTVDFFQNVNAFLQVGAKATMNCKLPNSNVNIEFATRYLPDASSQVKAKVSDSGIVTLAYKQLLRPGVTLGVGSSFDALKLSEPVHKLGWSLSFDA
Source text: as §2, §3

human VDAC1 = target: T4, human VDAC1 (Homo sapiens, UniProt P21796); test: Affinity labeling of Δpor1 yeast mitochondria expressing human VDAC1; format: binding; conditions: Δpor1 strains with plasmid expressing human VDAC1
T4 construct: expressed in transfected cells; host or cells: Δpor1 yeast strain transformed with a human VDAC1 plasmid; isolated mitochondria
T4 sequence (P21796 whole entry): as the sequence (Q9Z2L0 whole entry) above, with N55T, V129M, S160A, V227I counted along it
Source text: as §3

Structure (SMILES) | EC50 (MPTP [1]) [µM] | Effect on VDAC1 labeling (incorporation of radioactivity) by the tritiated spiro compound (VDAC1; rat brain mitochondria, 10 nM radiolabel) | Additive effect when combined with the spiro compound (Example 2) (MPTP [2]) | Labeling of ~32 kDa protein (VDAC1) (VDAC1; 10 nM, intact rat brain and liver mitochondria) | Labeling in yeast mitochondria lacking YVDAC1 (YVDAC1 [3]) | Labeling of 29 kDa band in yeast mitochondria (YVDAC1 [4]) | Labeling in yeast mitochondria expressing human VDAC1 (human VDAC1)
Nc1ncnc2c1ncn2[C@@H]1O[C@H](COP(=O)(O)OP(=O)(O)O)[C@@H](O)[C@H]1O [ADP] | 4.8 | did not affect | additive |  |  |  | 
[3H]C1c2ccccc2C2(CCC(=C)C2=O)c2ccccc2C1[3H] (stereo not shown) [Spiro[cyclopentane-1,5′-[5H]dibenzo[a,d]cyclohepten]-2-one,10′,11′-t2-10′,11′-dihydro-3-methylene-] |  |  |  | predominantly labeled | virtually no labeling | prominent labeling | no dear labeling
